Read-outs that look alike come from different tables or passages of the source.

Data set [1] has as its target sigma (σ-2) site (Homo sapiens, UniProt Q5BJF2). Particulars: background statement; cited from earlier work.
In data set [2] the target is sigma 1 (σ-1) site (Homo sapiens, UniProt Q99720). As to conditions: background statement; cited from earlier work.
The test system of data set [3] is human breast adenocarcinoma MCF7 European cell line. Briefly: Proliferation assay (MTT or SRB), MCF7 European cell line. The data set is classed as cell-based. Particulars: for cytotoxic effect of association with paclitaxel: 10 μM sigma-1 receptor antagonist + 10 nM paclitaxel; for IC50: Homo sapiens, read-out: IC50 (concentration of drug that inhibited 50% of cell proliferation). On the procedure: (§1) The human breast adenocarcinoma MCF7 European cell line, the human lung carcinoma A549 cell line and the B16-F10 murine melanoma cell line were obtained from the University of Granada Scientific Instrumentation Centre (Spain) and the American Type Culture Collection (ATCC). The cells were cultured in Dulbecco's modified Eagle's medium (DMEM) (Sigma, St. Louis, Mo., USA), supplemented with 10% heat-inactivated fetal bovine serum (FBS) (Lonza, Walkersville, Md., USA) and 1% of antibiotics mixture of penicillin (10,000 U/mL) and streptomycin (10 mg/mL) in an humidified 5% CO2 incubator at 37° C. of temperature. […] The percentage of viability was calculated by utilizing cells without any treatment as control. […] In the MTT protocol, 20 μL of MTT solution in cell culture medium (5 mg/mL) was added to each well. […] The optical density (OD) of converted dye, which is proportional to the number of viable cells, was measured at 570 nm using a Titertek multiscan colorimeter (Flow Laboratories, Irvine, USA). The percentage of surviving cells was calculated as the OD ratio of treated cells to control (untreated) cells (×100). In the SRB protocol, the cells were washed three times with PBS, and 300 μL of 10% trichloroacetic acid was used to fix the cells (20 minutes at 4° C.). Then, the cells were washed three times with distilled water and left to dry before 300 μL of SRB was added. Incubation under mechanical stirring was continued for 20 minutes, and the excess SRB was removed by the addition of a 1% acetic acid solution. Then, the cells were left to dry. […] Sigma-Aldrich) was used for dye resuspension. The optical density (OD) of SRB was measured at 492 nm (Titertek® Multiskan colorimeter; Flow Laboratories Ltd, Oldham, UK) and analyzed with Ascent software version 2.6 (ThermoLab systems, Helsinki, Finland). In all cases, the percentage of surviving cells was calculated as: [OD treated cells/OD control (untreated) cells)]×100. The IC50 values (concentration of drug that inhibited 50% of cell proliferation) were estimated from the inhibition curves.

In data set [4] the test system is B16-F10 murine melanoma cell line. Briefly: Proliferation assay (MTT or SRB), B16-F10 cell line. As to conditions: for cytotoxic effect of association with paclitaxel: 10 μM sigma-1 receptor antagonist + 10 nM paclitaxel; for IC50: Mus musculus, read-out: IC50 (concentration of drug that inhibited 50% of cell proliferation). The data set is classed as cell-based. As for the experimental part: as §1

The test system of data set [5] is human lung carcinoma A549 cell line. Briefly: Proliferation assay (MTT or SRB), A549 cell line. The data set is classed as cell-based. Particulars: read-out: IC50 (concentration of drug that inhibited 50% of cell proliferation).
Protocol: The cells were cultured in Dulbecco's modified Eagle's medium (DMEM) (Sigma, St. Louis, Mo., USA), supplemented with 10% heat-inactivated fetal bovine serum (FBS) (Lonza, Walkersville, Md., USA) and 1% of antibiotics mixture of penicillin (10,000 U/mL) and streptomycin (10 mg/mL) in an humidified 5% CO2 incubator at 37° C. of temperature. Cultured cells were detached with a trypsin-ethylenediamine tetraacetic acid (EDTA) solution (0.25%) and seeded into 24-well plates at a density of 6-15×10^3 cells per well, depending on the cell line.
After incubation for 24 hours under culture conditions, the cells were treated with either paclitaxel (0.1-50 nM) or Example 1 (5-100 μM). […] The percentage of viability was calculated by utilizing cells without any treatment as control.
After an incubation time of 96 hours with drugs, the cytotoxicity of the treatments toward the cell lines was evaluated in triplícate by the 3-(4,5-dimethylthiazol-2-yl)-2,5-diphenyl tetrazolium bromide (MTT) proliferation assay, as previously described (Clares et al., 2013), or with a sulforhodamine B (SRB) protocol, as previously described (Melguizo et al., 2015). […] The optical density (OD) of converted dye, which is proportional to the number of viable cells, was measured at 570 nm using a Titertek multiscan colorimeter (Flow Laboratories, Irvine, USA). […]
Data set [6] has as its system patients treated for colorectal cancer. Briefly: Phase 2 placebo-controlled clinical trial of Example 1 with oxaliplatin (FOLFOX4/mFOLFOX6). The data set is classed as in vivo, human. As for the experimental part: Thus, the clinical study titled “A proof-concept phase 2, randomized, placebo-controlled, double blind, multicenter clinical trial in two parallel groups to evaluate the efficacy of Example 1 for reducing the incidence and severity of oxaliplatin-induced peripheral neuropathy in patients treated for colorectal cancer” was performed.
The study period was 24 weeks of chemotherapy (one chemo cycle every 2 weeks=12 chemo cycles) plus 6 weeks (follow-up) and having as relevant safety objective to explore the incidence of adverse events by severity, of serious adverse effects, of adverse events leading to Example 1 discontinuation and of adverse events related to Example 1.
Patients received either: • oral daily Example 1, 400 mg/day, during the first 5 days of every chemotherapy cycle, starting the day before the cycle, up to a maximum of 12 cycles (Arm 1), • or oral daily placebo during the first 5 days of every chemotherapy cycle, starting the day before the cycle, up to a maximum of 12 cycles (Arm 2).
Patients were randomized to one of the two above mentioned Arms.
It was expected that chemotherapy cycles were repeated every 14 days for a maximum of 6 months (12 cycles) in the absence of disease progression or unacceptable toxicity.

Where [7] appears, read: Example 1 400 mg/day oral with oxaliplatin, % apparently of the 27 discontinuations.
Where [8] appears, read: Example 1 400 mg/day oral with oxaliplatin, % of n = 62 randomized.
Setting [9] is: Example 1 400 mg/day oral with oxaliplatin, number of subjects.
Setting [10] is: patients treated with Example 1 versus placebo.

sigma 1 (σ-1) site, sequence (Q99720 whole entry): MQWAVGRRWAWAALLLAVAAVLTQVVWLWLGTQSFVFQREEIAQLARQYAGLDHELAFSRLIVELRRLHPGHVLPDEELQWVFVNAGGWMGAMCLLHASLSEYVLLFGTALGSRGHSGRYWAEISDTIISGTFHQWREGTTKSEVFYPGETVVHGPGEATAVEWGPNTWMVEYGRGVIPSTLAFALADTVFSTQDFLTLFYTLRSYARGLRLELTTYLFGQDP
sigma (σ-2) site, sequence (Q5BJF2 whole entry): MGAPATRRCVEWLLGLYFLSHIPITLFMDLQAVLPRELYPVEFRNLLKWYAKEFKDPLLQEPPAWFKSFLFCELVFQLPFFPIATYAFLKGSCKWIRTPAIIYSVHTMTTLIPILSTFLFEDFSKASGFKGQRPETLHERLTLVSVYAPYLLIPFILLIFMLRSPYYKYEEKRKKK

In the case of SKF 10047, the “affinity for the sigma (σ-2) site” value in data set [1] is given as “micromolar affinity”. Also, the “affinity for the sigma 1 (σ-1) site” value in data set [2] is on record as “nanomolar affinity”.
Take `O=C(CCCN1CCC(O)(c2ccc(Cl)cc2)CC1)c1ccc(F)cc1` [haloperidol, reference compound]: the “cytotoxic effect of association with paclitaxel” value (from here on “cytotoxic effect of association”) in data set [3] (MCF7 European cell culture) and in data set [4] (B16-F10 cell culture) was “greater than summative” each time.
For the compound `CC(=O)O[C@H]1C(=O)[C@@]2(C)[C@H]([C@H](OC(=O)c3ccccc3)[C@]3(O)C[C@H](OC(=O)[C@H](O)[C@@H](NC(=O)c4ccccc4)c4ccccc4)C(C)=C1C3(C)C)[C@]1(OC(C)=O)CO[C@@H]1C[C@@H]2O` [Paclitaxel, reference compound], the IC50 in data set [3] (MCF7 European cells, 96 hours incubation) turned out to be 0.0085 µM; in data set [4] (B16-F10 cells, 96 hours incubation), 0.015 µM; in data set [5] (A549, A-549 cells, 96 hours incubation), 0.003 µM. Moreover, the cytotoxicity result in data set [3] (paclitaxel alone at 10 nM, MCF7 European cell culture) is on record as “around 35%”; in data set [4] (paclitaxel alone at 10 nM, B16-F10 cell culture) it was “around 35%”.
Regarding `Cc1cc(OCCN2CCOCC2)nn1-c1ccc2ccccc2c1` [Example 1, 4-{2-[5-Methyl-1-(naphthalen-2-yl)-1H-pyrazol-3-yloxy]ethyl}morpholine], the “cytotoxic effect of association” value in data set [3] (MCF7 European cell culture) is “better results than Haloperidol and BD-1063”. In data set [3] (MCF7 European cell culture, listed as Example-1), the “cytotoxic effect of association” value is reported as “greater than summative”. The IC50 in data set [3] (MCF7, 96 h) amounted to 83 µM. Further, in data set [4] (B16-F10 cell culture), the “cytotoxic effect of association” value was “better results than Haloperidol and BD-1063”. Moreover, the “cytotoxic effect of association” value in data set [4] (B16-F10 cell culture, listed as Example-1) is “greater than summative”. For the same compound, the IC50 in data set [4] (B16-F10, 96 h) stood at 27 µM. Moreover, the IC50 in data set [5] (A549, 96 h) was found to be 100 µM. Also, in data set [6] (setting [7]), the “Discontinuations: Physician decision (%)” value is listed as 11.1% and the “Discontinuations: Progressive Disease (%)” value is listed as 7.4%. In data set [6] (setting [8]), the “Number of Completers (%)” value is reported as 56.5% and the “Number of discontinuations (%)” value came to 43.5%. In addition, the Number of discontinuations in data set [6] (Example 1 400 mg/day oral with oxaliplatin, n = 62, number of subjects) came to 27. Besides, in data set [6] (setting [9]), the “Discontinuations: Physician decision” value stood at 3 and the “Discontinuations: Progressive Disease” value stood at 2. The “Number of Completers” value in data set [6] (Example 1 400 mg/day oral, first 5 days of each cycle, with oxaliplatin, n = 62 randomized, number of subjects) was found to be 35. Moreover, the “more patients completed the 12 cycles of Oxaliplatin therapy” value in data set [6] (Example 1 added to chemotherapy versus placebo) amounted to 14.6%. Also, in data set [6] (setting [10]), the Oxaliplatin dosing attained entry was “higher Oxaliplatin dosing”, the “patients discontinued because of cancer progression or physician decision” value was “Less patients” and the “tolerability of the chemotherapy” value was “tolerated better the chemotherapy”.

The values are drawn from US20190142840A1, “USE OF SIGMA RECEPTOR LIGANDS IN CANCER” (priority 2016, published 2019).
